Source: patent US20170355705A1 (GlaxoSmithKline Intellectual Property (No.2) Limited, priority 2014, published 2017)

Molecular target: T1, SIRT1 (Homo sapiens, UniProt Q96EB6)
T1 sequence (Q96EB6 1-747): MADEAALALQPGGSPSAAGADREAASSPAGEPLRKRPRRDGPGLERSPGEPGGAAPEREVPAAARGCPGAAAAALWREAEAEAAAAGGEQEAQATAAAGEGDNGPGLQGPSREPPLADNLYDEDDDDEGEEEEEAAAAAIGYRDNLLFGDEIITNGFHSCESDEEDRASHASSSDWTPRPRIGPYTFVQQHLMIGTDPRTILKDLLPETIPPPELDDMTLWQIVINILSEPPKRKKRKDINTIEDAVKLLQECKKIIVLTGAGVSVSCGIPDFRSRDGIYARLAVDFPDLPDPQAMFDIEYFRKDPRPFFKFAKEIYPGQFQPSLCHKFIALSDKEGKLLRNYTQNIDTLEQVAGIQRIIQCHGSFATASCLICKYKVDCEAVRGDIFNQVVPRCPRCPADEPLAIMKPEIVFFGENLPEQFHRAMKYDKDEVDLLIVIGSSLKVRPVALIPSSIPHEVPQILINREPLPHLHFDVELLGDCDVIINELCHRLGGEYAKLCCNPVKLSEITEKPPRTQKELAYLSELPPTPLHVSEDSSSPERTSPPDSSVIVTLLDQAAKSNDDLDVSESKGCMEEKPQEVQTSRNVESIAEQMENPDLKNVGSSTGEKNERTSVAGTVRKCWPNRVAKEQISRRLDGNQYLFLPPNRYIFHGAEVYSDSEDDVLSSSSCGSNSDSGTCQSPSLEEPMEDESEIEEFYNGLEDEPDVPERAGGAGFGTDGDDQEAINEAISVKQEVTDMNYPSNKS
Test: Trp mass spectrometry assay of SIRT1 activity (EC1.5, percent maximum activation)
Assay type: biochemical
Conditions: Trp mass spectrometry assay; for TRP Activity (EC1.5): EC1.5 = concentration giving 150% activation of SIRT1
Method in brief: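 Activation values derive from mass-spectrometric measurement of NAD-dependent deacetylation product after a 25 min reaction of bacterially expressed His-tagged SIRT1 with a fluorophore-labelled Trp peptide.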

[1] = percent maximum activation of SIRT1
[2] = 0.5 μM peptide substrate, 120 μM βNAD+, 10 nM SIRT1, 25 minutes at 25° C.

| TRP Activity (EC1.5) | TRP MAX RESP (percent maximum fold activation) [1] | TRP Activity (EC1.5, concentration of test compound that results in 150% activation of SIRT1) [2] | TRP MAX RESP (percent maximum fold activation) [2] | SMILES |
| --- | --- | --- | --- | --- |
| B (EC1.5 1-25 μM) | A (Fold activation ≧150%) |  |  | O=C(Nc1ccnc(O[C@@H]2CCOC2)n1)N1c2nc(-c3cccc(C(F)(F)F)c3)c(Cl)cc2N2CC[C@H]1C2 [Example 18, (4S)-8-chloro-N-(2-(((R)-tetrahydrofuran-3-yl)oxy)pyrimidin-4-yl)-7-(3-(trifluoromethyl)phenyl)-3,4-dihydro-1,4-methanopyrido[2,3-b][1,4]diazepine-5(2H)-carboxamide] |
| B (EC1.5 1-25 μM) | A (Fold activation ≧150%) |  |  | Cc1cc(-c2nc3c(cc2Br)N2CC[C@@H](C2)N3C(=O)Nc2ccccn2)ccn1 [Example 11, (4S)-8-bromo-7-(2-methylpyridin-4-yl)-N-(pyridin-2-yl)-3,4-dihydro-1,4-methanopyrido[2,3-b][1,4]diazepine-5(2H)-carboxamide] |
| C (EC1.5>25 μM) | B (Fold Activation <150%) |  |  | Cc1cc(-c2ccc3c(n2)N(C(=O)N2CCCC2)[C@H]2CCN3C2)ccn1 [Example 173, ((4S)-7-(2-methylpyridin-4-yl)-3,4-dihydro-1,4-methanopyrido[2,3-b][1,4]diazepin-5(2H)-yl)(pyrrolidin-1-yl)methanone] |
| B (EC1.5 1-25 μM) | A (Fold activation ≧150%) |  |  | CCc1ccc(-c2ccc3c(n2)N(C(=O)Nc2cnccn2)[C@H]2CCN3C2)cn1 [Example 156, (4S)-7-(6-ethylpyridin-3-yl)-N-(pyrazin-2-yl)-3,4-dihydro-1,4-methanopyrido[2,3-b][1,4]diazepine-5(2H)-carboxamide] |
| A (EC1.5<1 μM) | A (Fold activation ≧150%) |  |  | N#Cc1cc2c(nc1-c1cccc(C(F)(F)F)c1)N(C(=O)Nc1ccnc(OC[C@@H](O)CO)c1)[C@H]1CCN2C1 [Example 104, (4S)-8-cyano-N-(2-((S)-2,3-dihydroxypropoxy)pyridin-4-yl)-7-(3-(trifluoromethyl)phenyl)-3,4-dihydro-1,4-methanopyrido[2,3-b][1,4]diazepine-5(2H)-carboxamide] |
|  |  | C (EC1.5>25 μM) | B (Fold Activation <150%) | Cc1cc(-c2ccc3c(n2)N(C(=O)N2CCO[C@H](C)C2)[C@H]2CCN3C2)ccn1.Cl [Example 232, ((R)-2-methylmorpholino)((4S)-7-(2-methylpyridin-4-yl)-3,4-dihydro-1,4-methanopyrido[2,3-b][1,4]diazepin-5(2H)-yl)methanone hydrochloride] |
| B (EC1.5 1-25 μM) | A (Fold activation ≧150%) |  |  | O=C(Nc1cc(OC[C@H](O)CO)ccn1)N1c2nc(-c3cccc(C(F)(F)F)c3)c(Cl)cc2N2CC[C@H]1C2 [Example 31, (4S)-8-chloro-N-(4-((R)-2,3-dihydroxypropoxy)pyridin-2-yl)-7-(3-(trifluoromethyl)phenyl)-3,4-dihydro-1,4-methanopyrido[2,3-b][1,4]diazepine-5(2H)-carboxamide] |
| B (EC1.5 1-25 μM) | A (Fold activation ≧150%) |  |  | O=C(Nc1ccnc(OC[C@@H](O)CO)c1)N1c2nc(-c3cnn(C4CC4)c3)c(Cl)cc2N2CC[C@H]1C2 [Example 102, (4S)-8-chloro-7-(1-cyclopropyl-1H-pyrazol-4-yl)-N-(2-((S)-2,3-dihydroxypropoxy)pyridin-4-yl)-3,4-dihydro-1,4-methanopyrido[2,3-b][1,4]diazepine-5(2H)-carboxamide] |
| A (EC1.5<1 μM) | A (Fold activation ≧150%) |  |  | O=C(Nc1cncc(OC[C@H](O)CO)n1)N1c2nc(-c3cccc(C(F)(F)F)c3)c(Cl)cc2N2CC[C@H]1C2 [Example 65, (4S)-8-chloro-N-(6-((R)-2,3-dihydroxypropoxy)pyrazin-2-yl)-7-(3-(trifluoromethyl)phenyl)-3,4-dihydro-1,4-methanopyrido[2,3-b][1,4]diazepine-5(2H)-carboxamide] |
|  |  |  | A (Fold activation ≧150%) | Cc1cc(-c2ccc3c(n2)N(C(=O)Nc2cc(N4C[C@@H](C)O[C@@H](C)C4)ccn2)[C@H]2CCN3C2)ccn1 [Example 356] |
| A (EC1.5<1 μM) | A (Fold activation ≧150%) |  |  | Cl.O=C(Nc1ccnc(OC[C@H](O)CO)n1)N1c2nc(-c3cccc(C(F)(F)F)c3)c(Cl)cc2N2CC[C@H]1C2 [Example 51, (4S)-8-chloro-N-(2-((R)-2,3-dihydroxypropoxy)pyrimidin-4-yl)-7-(3-(trifluoromethyl)phenyl)-3,4-dihydro-1,4-methanopyrido[2,3-b][1,4]diazepine-5(2H)-carboxamide Hydrochloride] |
| B (EC1.5 1-25 μM) | A (Fold activation ≧150%) |  |  | Cc1cc(-c2nc3c(cc2Cl)N2CC[C@@H](C2)N3C(=O)Nc2cnc(OC[C@@H](O)CO)cn2)ccn1 [Example 40, (4S)-8-chloro-N-(5-((S)-2,3-dihydroxypropoxy)pyrazin-2-yl)-7-(2-methylpyridin-4-yl)-3,4-dihydro-1,4-methanopyrido[2,3-b][1,4]diazepine-5(2H)-carboxamide] |
|  |  | A (EC1.5<1 μM) | A (Fold activation ≧150%) | Cc1cc(-c2ccc3c(n2)N(C(=O)Nc2cnccn2)[C@H]2CCN3C2)cc(C(F)(F)F)n1 [Example 223, (4S)-7-(2-methyl-6-(trifluoromethyl)pyridin-4-yl)-N-(pyrazin-2-yl)-3,4-dihydro-1,4-methanopyrido[2,3-b][1,4]diazepine-5(2H)-carboxamide] |
|  |  | A (EC1.5<1 μM) | A (Fold activation ≧150%) | Cc1cc(-c2ccc3c(n2)N(C(=O)Nc2cc(-c4coc(C)n4)ccn2)[C@H]2CCN3C2)ccn1.Cl [Example 334, (4S)-N-(4-(2-methyloxazol-4-yl)pyridin-2-yl)-7-(2-methylpyridin-4-yl)-3,4-dihydro-1,4-methanopyrido[2,3-b][1,4]diazepine-5(2H)-carboxamide] |
| B (EC1.5 1-25 μM) | A (Fold activation ≧150%) |  |  | Cc1cc(-c2ccc3c(n2)N(C(=O)Nc2nccc4[nH]cnc24)[C@H]2CCN3C2)ccn1 [Example 145, (4S)-N-(1H-imidazo[4,5-c]pyridin-4-yl)-7-(2-methylpyridin-4-yl)-3,4-dihydro-1,4-methanopyrido[2,3-b][1,4]diazepine-5(2H)-carboxamide] |

| SMILES | TRP Activity (EC1.5) | TRP MAX RESP (percent maximum fold activation) [1] | TRP Activity (EC1.5, concentration of test compound that results in 150% activation of SIRT1) [2] | TRP MAX RESP (percent maximum fold activation) [2] |
| --- | --- | --- | --- | --- |
| Cl.O=C(NC1CC1)N1c2nc(-c3cccc(C(F)(F)F)c3)c(Cl)cc2N2CC[C@H]1C2 [Example 53, (4S)-8-chloro-N-cyclopropyl-7-(3-(trifluoromethyl)phenyl)-3,4-dihydro-1,4-methanopyrido[2,3-b][1,4]diazepine-5(2H)-carboxamide Hydrochloride] | A (EC1.5<1 μM) | A (Fold activation ≧150%) |  |  |
